Test system: NCI-H1876 complex spheroid viability
Assay: Anticancer human tumor NCI-H1876 cell line growth inhibition [LSD1];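 further: spheroids exposed to compounds for one week before readout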;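 on viability, T/C: 100% = DMSO vehicle-treated spheroids so lower means fewer viable cells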
Conditions: for IC50: curve of first compound; for viability, T/C: stronger effect = lower value
How it was run: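 Drug combinations with the LSD1 inhibitor iadademstat tested on tumor cells co-cultured as spheroids with endothelial cells and mesenchymal stem cells. Concentrations descended in half-log increments from clinical Cmax or 10 microM.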

[1] = second compound 0.1 µM, first compound 0.00949 µM
[2] = second compound 0.1 µM, first compound 0.03 µM
[3] = second compound 0.1 µM, first compound 0.0949 µM
[4] = second compound 0.1 µM, first compound 0.3 µM
[5] = second compound 0.1 µM, first compound 0.949 µM
[6] = second compound 0.1 µM, first compound 3 µM
[7] = second compound 0.316 µM, first compound 0.00949 µM
[8] = second compound 0.316 µM, first compound 0.03 µM
[9] = second compound 0.316 µM, first compound 0.0949 µM
[10] = second compound 0.316 µM, first compound 0.3 µM
[11] = second compound 0.316 µM, first compound 0.949 µM
[12] = second compound 0.316 µM, first compound 3 µM
[13] = second compound 1 µM, first compound 0.00949 µM
[14] = second compound 1 µM, first compound 0.03 µM
[15] = second compound 1 µM, first compound 0.0949 µM
[16] = second compound 1 µM, first compound 0.3 µM
[17] = second compound 1 µM, first compound 0.949 µM
[18] = second compound 1 µM, first compound 3 µM
[19] = second compound 3.16 µM, first compound 0.00949 µM
[20] = second compound 3.16 µM, first compound 0.03 µM
[21] = second compound 3.16 µM, first compound 0.0949 µM
[22] = second compound 3.16 µM, first compound 0.3 µM
[23] = second compound 3.16 µM, first compound 0.949 µM
[24] = second compound 3.16 µM, first compound 3 µM
[25] = second compound 10 µM, first compound 0.00949 µM
[26] = second compound 10 µM, first compound 0.03 µM
[27] = second compound 10 µM, first compound 0.0949 µM
[28] = second compound 10 µM, first compound 0.3 µM
[29] = second compound 10 µM, first compound 0.949 µM
[30] = second compound 10 µM, first compound 3 µM

Cn1ncnc1C1c2n[nH]c(=O)c3cc(F)cc(c23)NC1c1ccc(F)cc1 (stereo not given) + NC1CCC(NC2CC2c2ccccc2)CC1
IC50 (second compound 0.1 µM): > 100 nM | IC50 (second compound 0.316 µM): > 100 nM | IC50 (second compound 1 µM): > 100 nM | IC50 (second compound 3.16 µM): > 100 nM | IC50 (second compound 10 µM): > 100 nM | viability, T/C (second compound 0.1 µM, first compound 0.000316 µM): 99.3% | viability, T/C (second compound 0.1 µM, first compound 0.001 µM): 107% | viability, T/C (second compound 0.1 µM, first compound 0.00316 µM): 96.6% | viability, T/C (second compound 0.1 µM, first compound 0.01 µM): 98.3% | viability, T/C (second compound 0.1 µM, first compound 0.0316 µM): 91.7% | viability, T/C (second compound 0.1 µM, first compound 0.1 µM): 92% | viability, T/C (second compound 0.316 µM, first compound 0.000316 µM): 98% | viability, T/C (second compound 0.316 µM, first compound 0.001 µM): 114% | viability, T/C (second compound 0.316 µM, first compound 0.00316 µM): 97.3% | viability, T/C (second compound 0.316 µM, first compound 0.01 µM): 103% | viability, T/C (second compound 0.316 µM, first compound 0.0316 µM): 104% | viability, T/C (second compound 0.316 µM, first compound 0.1 µM): 82.8% | viability, T/C (second compound 1 µM, first compound 0.000316 µM): 107% | viability, T/C (second compound 1 µM, first compound 0.001 µM): 102% | viability, T/C (second compound 1 µM, first compound 0.00316 µM): 102% | viability, T/C (second compound 1 µM, first compound 0.01 µM): 98% | viability, T/C (second compound 1 µM, first compound 0.0316 µM): 95.8% | viability, T/C (second compound 1 µM, first compound 0.1 µM): 87.9% | viability, T/C (second compound 3.16 µM, first compound 0.000316 µM): 115% | viability, T/C (second compound 3.16 µM, first compound 0.001 µM): 117% | viability, T/C (second compound 3.16 µM, first compound 0.00316 µM): 104% | viability, T/C (second compound 3.16 µM, first compound 0.01 µM): 100% | viability, T/C (second compound 3.16 µM, first compound 0.0316 µM): 88.1% | viability, T/C (second compound 3.16 µM, first compound 0.1 µM): 104% | viability, T/C (second compound 10 µM, first compound 0.000316 µM): 104% | viability, T/C (second compound 10 µM, first compound 0.001 µM): 130% | viability, T/C (second compound 10 µM, first compound 0.00316 µM): 114% | viability, T/C (second compound 10 µM, first compound 0.01 µM): 95% | viability, T/C (second compound 10 µM, first compound 0.0316 µM): 100% | viability, T/C (second compound 10 µM, first compound 0.1 µM): 89.7%

NS(=O)(=O)OCC1CC(n2ccc3c(NC4CCc5ccccc54)ncnc32)CC1O (stereo not given) + NC1CCC(NC2CC2c2ccccc2)CC1
IC50 (second compound 0.1 µM): 101 nM | IC50 (second compound 0.316 µM): 78 nM | IC50 (second compound 1 µM): 71.8 nM | IC50 (second compound 3.16 µM): 68.9 nM | IC50 (second compound 10 µM): 83 nM | viability, T/C [1]: 78.2% | viability, T/C [2]: 60.1% | viability, T/C [3]: 56.1% | viability, T/C [4]: 36.6% | viability, T/C [5]: 36.1% | viability, T/C [6]: 31.7% | viability, T/C [7]: 75.3% | viability, T/C [8]: 60.5% | viability, T/C [9]: 47.2% | viability, T/C [10]: 39.4% | viability, T/C [11]: 37.9% | viability, T/C [12]: 31.4% | viability, T/C [13]: 83.5% | viability, T/C [14]: 62.3% | viability, T/C [15]: 46.8% | viability, T/C [16]: 35.1% | viability, T/C [17]: 34.2% | viability, T/C [18]: 30.1% | viability, T/C [19]: 70.9% | viability, T/C [20]: 57.9% | viability, T/C [21]: 48.4% | viability, T/C [22]: 35.9% | viability, T/C [23]: 33.6% | viability, T/C [24]: 28.8% | viability, T/C [25]: 77.3% | viability, T/C [26]: 63% | viability, T/C [27]: 47.6% | viability, T/C [28]: 37% | viability, T/C [29]: 32.3% | viability, T/C [30]: 24.4%

O=C(C=Cc1cccc(S(=O)(=O)Nc2ccccc2)c1)NO + NC1CCC(NC2CC2c2ccccc2)CC1
IC50 (second compound 0.1 µM): 196 nM | IC50 (second compound 0.316 µM): 193 nM | IC50 (second compound 1 µM): 179 nM | IC50 (second compound 3.16 µM): 193 nM | IC50 (second compound 10 µM): 158 nM | viability, T/C [1]: 109% | viability, T/C [2]: 103% | viability, T/C [3]: 89.3% | viability, T/C [4]: 27% | viability, T/C [5]: 12.8% | viability, T/C [6]: 10.9% | viability, T/C [7]: 103% | viability, T/C [8]: 101% | viability, T/C [9]: 87% | viability, T/C [10]: 27.1% | viability, T/C [11]: 13.9% | viability, T/C [12]: 19.6% | viability, T/C [13]: 103% | viability, T/C [14]: 105% | viability, T/C [15]: 77.3% | viability, T/C [16]: 27.3% | viability, T/C [17]: 6.13% | viability, T/C [18]: 0.61% | viability, T/C [19]: 101% | viability, T/C [20]: 106% | viability, T/C [21]: 82.2% | viability, T/C [22]: 29.8% | viability, T/C [23]: 4.78% | viability, T/C [24]: 0.3% | viability, T/C [25]: 105% | viability, T/C [26]: 99.3% | viability, T/C [27]: 69.8% | viability, T/C [28]: 26.6% | viability, T/C [29]: 3.06% | viability, T/C [30]: 19.4%
